Where a name gives a salt, the structure may show the parent alone.

The target in the first assay is T1, saccharase (from porcine intestinal mucosa) (Sus scrofa, UniProt P56729).
T1 construct: maltase and saccharase prepared from porcine intestinal mucosa; from tissue; host or cells: porcine intestinal mucosa
T1 sequence (P56729 with tags, fused parts or gaps limits assumed): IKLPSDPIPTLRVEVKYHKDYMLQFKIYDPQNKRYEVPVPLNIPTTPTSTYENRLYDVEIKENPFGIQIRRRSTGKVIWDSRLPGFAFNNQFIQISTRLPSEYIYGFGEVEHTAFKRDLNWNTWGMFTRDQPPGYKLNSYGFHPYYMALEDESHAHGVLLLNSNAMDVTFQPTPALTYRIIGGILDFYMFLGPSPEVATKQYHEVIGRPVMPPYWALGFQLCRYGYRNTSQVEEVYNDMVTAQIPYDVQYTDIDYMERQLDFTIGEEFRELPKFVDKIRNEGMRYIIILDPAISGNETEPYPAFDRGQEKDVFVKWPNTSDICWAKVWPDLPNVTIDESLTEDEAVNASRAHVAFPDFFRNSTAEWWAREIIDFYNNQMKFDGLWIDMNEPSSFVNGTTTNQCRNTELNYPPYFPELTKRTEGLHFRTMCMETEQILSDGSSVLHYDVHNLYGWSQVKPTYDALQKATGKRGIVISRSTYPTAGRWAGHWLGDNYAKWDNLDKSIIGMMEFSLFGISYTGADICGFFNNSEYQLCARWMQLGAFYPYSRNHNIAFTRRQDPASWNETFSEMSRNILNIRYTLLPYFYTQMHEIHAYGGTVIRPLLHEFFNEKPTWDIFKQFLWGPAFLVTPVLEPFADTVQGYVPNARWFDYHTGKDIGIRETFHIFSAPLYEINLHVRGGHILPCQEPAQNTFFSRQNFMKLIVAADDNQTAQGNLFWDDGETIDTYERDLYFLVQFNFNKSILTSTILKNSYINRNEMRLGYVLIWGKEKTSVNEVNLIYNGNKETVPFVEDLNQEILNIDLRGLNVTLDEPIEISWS
T1 sequence (P56729 with tags, fused parts or gaps partner limits assumed): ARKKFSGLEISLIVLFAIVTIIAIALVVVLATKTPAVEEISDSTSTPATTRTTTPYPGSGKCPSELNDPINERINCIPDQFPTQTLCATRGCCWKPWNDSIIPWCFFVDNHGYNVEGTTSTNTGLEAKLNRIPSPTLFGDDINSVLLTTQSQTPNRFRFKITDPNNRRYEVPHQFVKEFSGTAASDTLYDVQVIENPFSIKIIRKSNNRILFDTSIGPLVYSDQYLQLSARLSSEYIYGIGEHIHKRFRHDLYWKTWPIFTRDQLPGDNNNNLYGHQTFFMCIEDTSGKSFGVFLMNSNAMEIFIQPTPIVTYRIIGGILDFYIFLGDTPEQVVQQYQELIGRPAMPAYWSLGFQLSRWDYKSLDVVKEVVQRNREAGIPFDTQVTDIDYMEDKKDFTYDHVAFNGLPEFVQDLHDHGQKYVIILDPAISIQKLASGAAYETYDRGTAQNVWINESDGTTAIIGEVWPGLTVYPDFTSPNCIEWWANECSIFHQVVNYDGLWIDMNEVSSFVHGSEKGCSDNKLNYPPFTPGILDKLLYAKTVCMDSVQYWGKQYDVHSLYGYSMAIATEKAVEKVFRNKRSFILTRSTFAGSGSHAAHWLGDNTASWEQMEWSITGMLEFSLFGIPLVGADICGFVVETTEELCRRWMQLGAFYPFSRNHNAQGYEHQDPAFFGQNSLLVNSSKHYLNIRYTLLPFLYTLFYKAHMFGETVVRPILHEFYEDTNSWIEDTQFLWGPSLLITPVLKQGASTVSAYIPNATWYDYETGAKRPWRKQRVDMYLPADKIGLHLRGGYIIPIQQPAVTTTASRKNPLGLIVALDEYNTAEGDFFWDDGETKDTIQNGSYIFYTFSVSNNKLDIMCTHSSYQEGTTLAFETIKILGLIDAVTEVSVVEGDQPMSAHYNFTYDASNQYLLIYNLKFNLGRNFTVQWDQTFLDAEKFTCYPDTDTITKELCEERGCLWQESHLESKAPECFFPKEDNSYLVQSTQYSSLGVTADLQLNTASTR
Nature of the assay: inhibitory activity against saccharase prepared from porcine intestinal mucosa (substrate sucrose). In kind it is biochemical.
Details: not given
How it is done:
(§1) The inhibitory activities of the compounds of this invention against α-glucosidase (yeast, type I, produced by Sigma Chemical Co. the United States of America) as well as maltase and saccharase prepared from porcine intestinal mucosa (prepared in accordance with the procedure as described by B. Borgstro m and A. Dahlgvist in Acta Chem. Scand.; 12, 1997-2006, (1958)), when maltose and sucrose are used as a substrate, are determined by adding to 0.25 ml of a solution of an enzyme prepared by diluting suitably with 0.02M phosphate buffer (pH 6.8) 0.5 ml of a solution of an inhibitory substance to be tested in the same buffer and 0.25 ml of 0.05M maltose or 0.05M sucrose as the substrate in the same buffer, allowing the mixture to react at 37° C. for 10 minutes, then adding 3 ml of Glucose B-Test Reagent (a glucose oxidase reagent for measurement of glucose, produced by Wako Pure Chemical Co., Japan), further warming the mixture at 37° C. for 20 minutes, and measuring the absorbance of the reaction solution at 505 nm. […]
Compound `OCC(CO)N[C@H]1C[C@](O)(CO)[C@@H](O)[C@H](O)[C@H]1O` [drawing 17] gave an IC50 of 4.6 nM.

The same assay, now with this note: IC50 (saccharase), given in the examples.
`OC[C@@]1(O)C[C@H](NC2CCCC2O)[C@H](O)[C@@H](O)[C@@H]1O` (single isomer, unassigned) [Example 38 Isomer showing [α]D^24 +40.4°, N-(2-hydroxycyclopentyl)valiolamine]: the IC50 is 130 nM.
As to `OC[C@@]1(O)C[C@H](NC2CCCC2O)[C@H](O)[C@@H](O)[C@@H]1O` (single isomer, unassigned) [Example 38 Isomer showing [α]D^24-16.2°, N-(2-hydroxycyclopentyl)valiolamine], the IC50 was 24 nM.
Same read-out and setting: the same measure for `OC[C@H]1C[C@H](NC2CCCCC2O)[C@H](O)[C@@H](O)[C@@H]1O` (some centres unmarked) [Example 20, N-(2-hydroxycyclohexyl)validamine]: 96 nM.
Still for that read-out and setting: the same measure for `OC[C@H]1C[C@H](NC2CCCC2O)[C@H](O)[C@@H](O)[C@@H]1O` (some centres unmarked) [Example 21, N-(2-hydroxycyclopentyl)validamine]: 130 nM.
In turn, `OC[C@@]1(O)C[C@H](NC2CCCC2)[C@H](O)[C@@H](O)[C@@H]1O` [Example 39, N-cyclopentylvaliolamine] displayed an IC50 of 25 nM.

Staying with this assay, now noted: Table 2; porcine intestinal mucosa saccharase, substrate sucrose, pH 6.8, 37° C.
For `OC[C@@]1(O)C[C@H](NCC2CCCCC2)[C@H](O)[C@@H](O)[C@@H]1O`, the IC50 came to 9.3 nM.
Still for that read-out and setting: the same measure for `CC(C)=CCC/C(C)=C/CN[C@H]1C[C@](O)(CO)[C@@H](O)[C@H](O)[C@H]1O`: 11 nM.
Same read-out and setting: the same measure for `OCC(O)C(O)C(O)C(O)CN[C@H]1C[C@](O)(CO)[C@@H](O)[C@H](O)[C@H]1O` (some centres unmarked): 36 nM; for `OC[C@@]1(O)C[C@H](NCc2ccc(Br)cc2)[C@H](O)[C@@H](O)[C@@H]1O`: 15 nM.
Compound `OCC1(O)CC(NCc2ccco2)C(O)C(O)C1O` (centres unmarked) registered an IC50 of 15 nM.
On to `OC[C@@]1(O)C[C@H](NCC(O)c2ccccc2)[C@H](O)[C@@H](O)[C@@H]1O` (single isomer, unassigned) [drawing 18], for which the IC50 was determined as 19 nM.
Still for that read-out and setting: the same measure for `OC[C@@]1(O)C[C@H](NCC(O)c2ccccc2)[C@H](O)[C@@H](O)[C@@H]1O` (single isomer, unassigned) [drawing 19]: 2.9 nM; for `OC[C@@]1(O)C[C@H](NCC(O)COc2ccccc2)[C@H](O)[C@@H](O)[C@@H]1O` (some centres unmarked) [drawing 20]: 8.6 nM.
`OC[C@H]1C[C@H](NCCCc2ccccc2)[C@H](O)[C@@H](O)[C@@H]1O` [drawing 24] returned an IC50 of 1900 nM.
Consider `OC[C@@]1(O)C[C@H](NCCc2ccccc2)[C@H](O)[C@@H](O)[C@@H]1O` [drawing 26], for which the IC50 was found to be 2.3 nM.
As for `OC[C@H]1C[C@H](NCC(O)c2ccccc2)[C@H](O)[C@@H](O)[C@@H]1O` (some centres unmarked) [drawing 32], the IC50 worked out at 22 nM.
`OCC(N[C@H]1C[C@H](CO)[C@@H](O)[C@H](O)[C@H]1O)C(O)c1ccccc1` (some centres unmarked) [drawing 33] showed an IC50 of 260 nM.

The same assay, now with this note: given in the examples; read-out: IC50 (saccharase).
As for `CC(C)=CCC/C(C)=C/CN[C@H]1C[C@H](CO)[C@@H](O)[C@H](O)[C@H]1O` [Example 12, N-geranylvalidamine sulfate], the IC50 came to 790 nM.
Same read-out and setting: the same measure for `OCC(N[C@H]1C[C@H](CO)[C@@H](O)[C@H](O)[C@H]1O)[C@@H](O)[C@H](O)[C@@H](O)CO` (stereo partly drawn) [Example 16, N-(L-xylo-2,3,4,5-tetrahydroxy-1-hydroxymethylpentyl)validamine]: 79 nM.
On the same count and under the same terms, the same measure for `OC[C@@]1(O)C[C@H](NC2CCCCC2)[C@H](O)[C@@H](O)[C@@H]1O` [Example 37, N-cyclohexylvaliolamine]: 15 nM; for `CC(C)(C)c1cc(CN[C@H]2C[C@](O)(CO)[C@@H](O)[C@H](O)[C@H]2O)cc(C(C)(C)C)c1O` [Example 40, N-(3,5,-di-tert-butyl-4-hydroxybenzyl)valiolamine]: 6.8 nM; for `COc1ccccc1C(O)CN[C@H]1C[C@](O)(CO)[C@@H](O)[C@H](O)[C@H]1O` (stereo partly drawn) [Example 41, N-(β-hydroxy-2-methoxyphenetyl)valiolamine]: 9.9 nM.

In another assay the target is maltase (from porcine intestinal mucosa). Nature of the assay: inhibitory activity against maltase prepared from porcine intestinal mucosa (substrate maltose). In kind it is biochemical. The conditions noted are these: given in the examples; read-out: IC50 (maltase). How it is done:
as §1
In the case of `OC[C@@]1(O)C[C@H](NC2CCCC2O)[C@H](O)[C@@H](O)[C@@H]1O` (single isomer, unassigned) [Example 38 Isomer showing [α]D^24-16.2°, N-(2-hydroxycyclopentyl)valiolamine], the IC50 was 58 nM.
The same measure, in the same setting: next, `OC[C@H]1C[C@H](NCC(O)COc2ccccc2)[C@H](O)[C@@H](O)[C@@H]1O` (some centres unmarked) [Example 18, N-(2-hydroxy-3-phenoxypropyl)validamine]: 3400 nM; `OCC(N[C@H]1C[C@H](CO)[C@@H](O)[C@H](O)[C@H]1O)[C@@H](O)[C@H](O)[C@H](O)CO` (stereo partly drawn) [Example 19, N-(D-arabino-2,3,4,5-tetrahydroxy-1-hydroxymethylpentyl)validamine]: 590 nM.
Turning to `OC[C@@]1(O)C[C@H](NC2CCCCC2)[C@H](O)[C@@H](O)[C@@H]1O` [Example 37, N-cyclohexylvaliolamine], the IC50 was 410 nM.
Regarding `CC(C)(C)c1cc(CN[C@H]2C[C@](O)(CO)[C@@H](O)[C@H](O)[C@H]2O)cc(C(C)(C)C)c1O` [Example 40, N-(3,5,-di-tert-butyl-4-hydroxybenzyl)valiolamine], the IC50 is 43 nM.
Regarding `COc1ccccc1C(O)CN[C@H]1C[C@](O)(CO)[C@@H](O)[C@H](O)[C@H]1O` (stereo partly drawn) [Example 41, N-(β-hydroxy-2-methoxyphenetyl)valiolamine], the IC50 is 63 nM.
Same read-out and setting: next, `OCC(N[C@H]1C[C@H](CO)[C@@H](O)[C@H](O)[C@H]1O)c1ccccc1` (stereo partly drawn) [N-[α-(hydroxymethyl)benzyl]validamine]: 4500 nM.

The same assay, now with this note: read-out: The concentrations of 50% inhibition against maltase (substrate:maltose) IC50; Table 1; porcine intestinal mucosa maltase, substrate maltose, pH 6.8, 37° C.
As for `CC(C)(C)c1cc(CN[C@H]2C[C@H](CO)[C@@H](O)[C@H](O)[C@H]2O)cc(C(C)(C)C)c1O`, the IC50 was 36000 nM.
In the case of `OC[C@@]1(O)C[C@H](NCC(O)c2ccccc2)[C@H](O)[C@@H](O)[C@@H]1O` (single isomer, unassigned) [drawing 8], the IC50 worked out at 50 nM.
In the case of `OC[C@@]1(O)C[C@H](NCC(O)c2ccccc2)[C@H](O)[C@@H](O)[C@@H]1O` (single isomer, unassigned) [drawing 9], the IC50 turned out to be 5.8 nM.
On the same count and under the same terms, the same measure for `OCC(CO)N[C@H]1C[C@](O)(CO)[C@@H](O)[C@H](O)[C@H]1O` [drawing 7]: 15 nM; for `OC[C@H]1C[C@H](NCC(O)c2ccccc2)[C@H](O)[C@@H](O)[C@@H]1O` (some centres unmarked) [drawing 10]: 1700 nM.
Same read-out and setting: next, `OCC(N[C@H]1C[C@H](CO)[C@@H](O)[C@H](O)[C@H]1O)C(O)c1ccccc1` (some centres unmarked) [drawing 11]: 32000 nM; `OC[C@@]1(O)C[C@H](NCC(O)COc2ccccc2)[C@H](O)[C@@H](O)[C@@H]1O` (some centres unmarked) [drawing 12]: 33 nM; `OC[C@@]1(O)C[C@H](NCCc2ccccc2)[C@H](O)[C@@H](O)[C@@H]1O` [drawing 13]: 100 nM.
Same read-out and setting: next, `OC[C@H]1C[C@H](NCCCc2ccccc2)[C@H](O)[C@@H](O)[C@@H]1O` [drawing 14]: 92000 nM.

The test system of another assay is α-glucoside hydrolase. Description: α-glucosidase inhibitory activity (general statement). In kind it is biochemical. The note with it: statement in words.
For the compound `N[C@H]1C[C@H](CO)[C@@H](O)[C@H](O)[C@H]1O` [validamine], the α-glucosidase inhibitory activity entry is “possesses a highly valuable action of suppressing the function of α-glucoside hydrolase”.
Still for that read-out and setting: next, `N[C@H]1C[C@](O)(CO)[C@@H](O)[C@H](O)[C@H]1O` [valiolamine, 1L(1S)-(1(OH),2,4,5/1,3)-5-amino-1-hydroxymethyl-1,2,3,4-cyclohexanetetrol]: “α-glucosidase inhibitory activity”.

The values are drawn from patent publication US4803303A, “N-substituted pseudo-aminosugars, their production and use” (Takeda Chemical Industries, Ltd., priority 1981, dated 1989).
